From ChEMBL document CHEMBL5352415, “Discovery of new macrophage M2 polarization modulators as multiple sclerosis treatment agents that enable the inflammation microenvironment remodeling” (Eur J Med Chem, 2022)
pIC50: −log10 of the molar value. The source made the active and inactive calls. The calls are words filed in the database; no cut-off is given here.

Tests used:
Mus musculus [1] = experiment: (§1) Anti-inflammatory activity in MOG (35 to 55 residues)/pertussis toxin-induced experimental autoimmune encephalomyelitis C57BL/6 mouse model assessed as M2 macrophage polarization by measuring increase in Mrc1 mRNA expression in CNS at 75 to 150 mg/kg, po administered once daily starting from day 7 to day 20 by qRT-PCR analysis; assay type: functional, organism-based; conditions: dose 75-150 mg/kg, time 14.0 day
Mus musculus [2] = experiment: (§2) Anti-inflammatory activity in MOG (35 to 55 residues)/pertussis toxin-induced experimental autoimmune encephalomyelitis C57BL/6 mouse model assessed as increase in F4/80+ CD206+ M2 macrophage in spleen at 75 to 150 mg/kg, po administered once daily starting from day 7 to day 20 by flow cytometric analysis; assay type: functional; conditions: dose 75-150 mg/kg, time 14 day
Mus musculus [3] = experiment: as §1, with “inhibition of M1” for “M2”, “decrease” for “increase”, “IL-6” for “Mrc1”; assay type: functional, organism-based; conditions: dose 75-150 mg/kg, time 14.0 day
Mus musculus [4] = experiment: as §1, with “Ym1” for “Mrc1”; assay type: functional, organism-based; conditions: dose 75-150 mg/kg, time 14.0 day
[5] = Inhibition of M1 macrophage polarization in C57BL/6 mouse BMDM cells assessed as fold change in IL-1beta gene level at 1 uM incubated for 24 hrs by qRT-PCR analysis (reference value: 1); assay type: functional
Mus musculus [6] = experiment: as §2, with “decrease” for “increase”, “CD86+ M1” for “CD206+ M2”; assay type: functional, organism-based; conditions: dose 75-150 mg/kg, time 14.0 day
[7] = molecular target: RAC-beta serine/threonine-protein kinase (Homo sapiens, UniProt P31751); experiment: Inhibition of AKT2 (unknown origin); assay type: binding
Mus musculus [8] = experiment: Anti-inflammatory activity in MOG (35 to 55 residues)/pertussis toxin-induced experimental autoimmune encephalomyelitis C57BL/6 mouse model assessed as inhibition of CD4+ T cell differentiation by measuring reduction in Th1 (IFN-gamma+) cells in spleen administered orally once daily starting from day 7 to day 20 by flow cytometric analysis; assay type: functional, organism-based; conditions: dose 75-150 mg/kg, route po, time 14.0 day
Mus musculus [9] = experiment: Anti-inflammatory activity in MOG (35 to 55 residues)/pertussis toxin-induced experimental autoimmune encephalomyelitis C57BL/6 mouse model assessed as decrease in disease progression by measuring clinical score at 75 to 150 mg/kg, po administered once daily starting from day 7 to day 20; assay type: functional, organism-based; conditions: dose 75-150 mg/kg, time 14.0 day
[10] = Inhibition of M1 macrophage polarization in C57BL/6 mouse BMDM cells assessed as fold decrease in Inos gene level at 1 uM incubated for 24 hrs by qRT-PCR analysis (reference value: 1); assay type: functional
Mus musculus [11] = experiment: Anti-inflammatory activity in MOG (35 to 55 residues)/pertussis toxin-induced experimental autoimmune encephalomyelitis C57BL/6 mouse model assessed as decrease in infiltrated inflammatory cells administered orally once daily starting from day 7 to day 20 by H&E staining based analysis; assay type: functional, organism-based; conditions: dose 75-150 mg/kg, route po, time 14.0 day

RAC-beta serine/threonine-protein kinase, sequence (P31751 whole entry, the tested form may be a part): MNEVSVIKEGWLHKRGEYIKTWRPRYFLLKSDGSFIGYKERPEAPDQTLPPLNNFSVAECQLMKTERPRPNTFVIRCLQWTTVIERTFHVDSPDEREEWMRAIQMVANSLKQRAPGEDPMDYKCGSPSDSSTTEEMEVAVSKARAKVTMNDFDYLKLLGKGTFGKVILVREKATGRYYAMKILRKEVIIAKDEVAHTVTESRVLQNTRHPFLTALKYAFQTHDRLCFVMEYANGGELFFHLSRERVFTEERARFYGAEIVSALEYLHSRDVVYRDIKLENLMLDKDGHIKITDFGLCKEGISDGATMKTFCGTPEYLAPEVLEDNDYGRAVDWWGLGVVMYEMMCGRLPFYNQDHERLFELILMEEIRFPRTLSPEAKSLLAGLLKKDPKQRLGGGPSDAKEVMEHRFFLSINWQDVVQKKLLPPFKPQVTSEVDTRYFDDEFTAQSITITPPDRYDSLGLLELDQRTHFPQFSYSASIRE

For `Cl.Cn1ncc(Br)c1-c1ccc(C(=O)N[C@@H]2CNCC[C@H]2c2ccc(F)c(F)c2)cc1C1CC1`, the Activity (Mus musculus [1]) was “Active”, the Activity (Mus musculus [2]) was 12.4% and the Activity (Mus musculus [3]) was “Active”. The Activity (Mus musculus [4]) was “Active”, the “fold change (FC)” value [5] was 4.15 and the Activity (Mus musculus [6]) was “Active”. For the same compound, the pIC50 [7] was less than 6.00, the Activity (Mus musculus [8]) was “Dose-Dependent Effect” and the Activity (Mus musculus [9]) was “Active”. The “fold change (FC)” value [10] was 0.49 and the Activity (Mus musculus [11]) was “Dose-Dependent Effect”.
